The term IC50 denotes the concentration that gives 50% inhibition.

The values below come from patent US20220168276A1, “Mehods and Compositions for Treating SARS-CoV-2 Infection using Carboxyamidotriazole Orotate” (priority 2020, published 2022).

Data set [1] has as its system Cytokines in plasma. Briefly: Phase I trial of CTO in cancer patients: plasma cytokine levels by Milliplex/Luminex panel. It is filed as in vivo, human. More on the design: key to GM-CSF plasma level / IFNα2 plasma level / IFNγ plasma level / IL-10 plasma level / IL-12p40 plasma level / IL-12p70 plasma level / IL-13 plasma level / IL-15 plasma level / IL-17A plasma level / IL-1RA plasma level / IL-2 plasma level / IL-4 plasma level / IL-6 plasma level / IL-8 plasma level / IP-10 plasma level / MIP1a plasma level / RANTES plasma level / IL-1β plasma level / TNFα plasma level / VEGF plasma level / EGF plasma level: + increased; − decreased. On the procedure: Such an approach described above is based on unexpected findings when CTO was given to cancer patients who volunteered to participate in Phase I clinical studies of CTO to establish its safety and tolerability.
In a Phase I trial of CTO testing the safety and tolerability of CTO in cancer patients, Plasa samples were obtained from three patients after administration of different doses of CTO daily as follows: 1) NSCLC Patient 002-46 (CTO 555 mg/m2), 2) NSCLC Patient 002-50 (CTO 427 mg/m2) and 3) Ovarian Cancer Patient 002-53(CTO 427 mg/m2) The levels of cytokines were measured by using the HCYTMAG-60K-PX30/Milliplex MAP Human Cytokine/Chemokine Magnetic Bead Panel from Milliplex, USA.

In data set [2] the test system is SARS-CoV-2. It is filed as in vivo. The conditions noted are these: one patient, 600 mg daily oral, second day.
In data set [3] the test system is SARS-CoV-2. The conditions noted are these: Vero E6 cells.
The test system of data set [4] is Akt and Erk1/2 phosphorylation. The conditions noted are these: exosomes stimulated HUVEC cell; cited from earlier work.
The conditions of data set [5]: in vivo; cited from earlier work.
The conditions of data set [6]: cited from earlier work.
Data set [7] deals with imatinib mesylate-resistant chronic myeloid leukemia cells. The conditions noted are these: by down-regulating bcr-abl; cited from earlier work.
Data set [8] concerns human T-cells. The settings on record: cited from earlier work.
In data set [9] the test system is non-infected Vero E6 cells. It is filed as cell-based. The settings on record: cell viability, read-out: EC 50 in non-infected Vero E6 cells.
Setting [10] is: cancer patients, CTO 427-555 mg/m2 daily, vs baseline.

Entries after “also recorded” stand apart in the source; their conditions may differ.

Take `NC(=O)c1nnn(Cc2cc(Cl)c(C(=O)c3ccc(Cl)cc3)c(Cl)c2)c1N.O=C(O)c1cc(=O)[nH]c(=O)[nH]1` [CTO]: in data set [1] (setting [10]), the EGF plasma level entry is on record as “EGF- (+)”, the GM-CSF plasma level entry was “GM-CSF- (−)”, the IFNα2 plasma level result is “IFNα2- (+)” and the IFNγ plasma level entry was “IFNγ- (−)”. Also, in data set [1] (setting [10]), the IL-1RA plasma level result was “IL-1RA- (−)”, the IL-1β plasma level entry is “**IL-1β- (−)”, the IL-2 plasma level result is listed as “IL-2- (−)” and the IL-4 plasma level result is reported as “IL-4- (−)”. In data set [1] (setting [10]), the IL-6 plasma level entry is given as “IL-6- (−)”, the IL-8 plasma level result is “IL-8-(−)”, the IL-10 plasma level result is “IL-10- (+)” and the IL-12p40 plasma level entry is “IL-12p40- (+)”. Also, in [1] (setting [10]), the IL-12p70 plasma level entry is on record as “IL-12p70- (−)”, the IL-13 plasma level entry is listed as “IL-13-(−)”, the IL-15 plasma level entry is reported as “IL-15- (−)” and the IL-17A plasma level result is on record as “IL-17A- (−)”. Further, in data set [1] (setting [10]), the IP-10 plasma level result is “IP-10- (−)”, the MIP1a plasma level entry is given as “MIP1a- (−)”, the RANTES plasma level entry is “RANTES- (+)” and the TNFα plasma level entry is on record as “**TNFα- (−)”. The VEGF plasma level entry in data set [1] (setting [10]) is recorded as “VEGF- (−)”. Besides, the “levels of cytokines including EGF, IFN α2, IL-10, IL-12p40” value in [1] (plasma, CTO 427 mg/m2 to 555 mg/m2) was “increase”. In data set [1] (plasma, CTO 427 mg/m2 to 555 mg/m2, forty-eight hours interval after CTO, vs baseline), the “levels of several cytokines including VEGF, GM-CSF, INF-γ, IL-2, IL-12p70, IL-13, IL-15, IL-17a, IL-1RA, IL-1α, IL-2, IL1-4, IL-6, IL-8, il-10, MIP1-α, IL-1β, TNF-α” value was “reduced; also recorded: reduction”. Moreover, the COVID-19 symptoms result in data set [2] was “great improvement in most of the symptoms”. Also, in data set [2] (lost twelve pounds before treatment), the body weight entry is on record as “remained at constant weight”. Besides, the “concentration up to which CTO inhibited replication of SARS-CoV-2” value in [3] was “up to 5 μM”. Moreover, the cell viability result in data set [3] (CTO up to 5 μM) was “above 90%”. Further, in data set [3] (recorded <20 μM concentration), the “Maximum % Inhibition of CPE” value is given as 29.03%. Besides, the “Akt and Erk1/2 phosphorylation” value in data set [4] is given as “inhibits”.

As for `NC(=O)c1nnn(Cc2cc(Cl)c(C(=O)c3ccc(Cl)cc3)c(Cl)c2)c1N` [CAI, carboxyamidotriazole], in [5], the “TNF-α and IL-1β at the site of inflammation and in serum” value is listed as “decreased”; the “vascular permeability stimulated by VEGF or histamine” value is reported as “inhibited”. In addition, in data set [6] (animals), the “colitis scored macroscopically and microscopically” value was “inhibited”. In addition, in [6] (in vivo), the NF-kB activation entry is given as “prevented” and the “production of fibrinogenic cytokine transforming growth factor β” value was “inhibited”. Moreover, the “production of TNF-α, IL-1β and IL-6” value in data set [6] (serum, supernatant of peritoneal macrophages and lamina propria) was “inhibited”. Moreover, the apoptosis entry in [7] is “induces apoptosis”. Further, in [8], the “calcium influx and HIV LTR transcription dependent on it” value was “modulated”.

In the case of `NC(=O)c1nnn(Cc2cc(Cl)c(C(=O)c3ccc(Cl)cc3)c(Cl)c2)c1N.O=C(O)c1cc(=O)[nH]c(=O)[nH]1` [CTO, 5-amino-1-(4-(4-chlorobenzyl)-1,2,3-triazole-4-carboxamide orotate], in data set [9], the EC50 turned out to be 14.9 µM. Further, in [3] (read-out: IC50, cytopathic effect (CPE) for SARS-CoV-2, 72 hours post-inoculation, 20 μM highest dose tested), the IC50 was above 20 µM.
